{
  "source": "patent US20080071116A1",
  "about": "“Modulators of Lysophosphatidic Acid (Lpa) Signaling and the Use Thereof” (THE BOARD OF REGENTS OF THE UNIVERSITY OF TEXAS SYSTEM, priority 2004, published 2008)",
  "key": {"DU145 cells [1]": {"test_system": "DU145 cells", "assay": "focal adhesion in DU145 cells", "type": "cell-based, human", "conditions": "FIG. 55"}, "PC-3 cells [2]": {"test_system": "PC-3 cells", "assay": "lamellipodia formation in PC-3 cells", "type": "cell-based, human", "conditions": "30 μM"}, "PC-3 cells [3]": {"test_system": "PC-3 cells", "assay": "focal adhesion in PC-3 cells", "type": "cell-based, human", "conditions": "FIG. 56"}, "HT29 cells [4]": {"test_system": "HT29 cells", "assay": "calcium mobilization assay in colon cancer HT29 cells", "type": "cell-based", "conditions": "HT29 cells (only express LPA2), FIGS. 21-22", "procedure": "The procedures for these calcium mobilization assays are as followed: OVCAR3 cells and PC-3 cells were cultured in RPMI 1640 medium with 10% FBS (fetal bovine serum). HT29 cells were cultured in DMEM (high glucose) medium with 10% FBS. All cells were cultured at about 37° C. in a humidified atmosphere with 5% CO2. After starvation in serum-free medium for about 12-24 hours, cells were harvested and loaded with about 1 μM of Indo-1 AM in serum-free medium for about 45 min at 37° C. Cells were washed in PBS and resuspended at 2×10^6 cells/ml in a [Ca^2+]i assay buffer (Sodium chloride, NaCl, about 140 mM, potassium chloride, KCl, about 2 mM, magnesium chloride, MgCl2, about 1 mM, calcium chloride, CaCl2, about 2 mM, in about 25 mM HEPES buffer at pH 7.4 with about 10 mM of glucose). Cytoplasmic [Ca^2+]i was determined at an excitation wavelength of about 331 nm and an emission wavelength of 410 nm using a fluorescence spectrophotometer (Hitachi, F-4000). Approximately 3×10^6 cells were used for [Ca^2+]l determination in a stirred quartz cuvette kept at about 37° C. OMPT or 18:1 LPA was dissolved in about 0.1% BSA/PBS solution and applied immediately to the cells. To test other LPA derivatives of the invention, cells were exposed to the derivatives for about 3 minutes or for a period of various times in time course related experiments before a LPA agonist, such as 18:1 LPA, OMPT, or other LPAs was applied into the cuvette.\nThe concentration of calcium mobilization giving the half-maximal response (EC50) was obtained from the concentration-response curve fitted to a sigmoidal logistic equation, with the maximal calcium response set to 100% using the GraphPad Prism. Maximal response value is expressed as mean +/−s.e.m. EC50 value is expressed with 95% confidence."}, "HT29 cells [5]": {"test_system": "HT29 cells", "assay": "lamellipodia formation in colon cancer HT29 cells", "type": "cell-based", "conditions": "for inhibition of 14:0 LPA-induced lamellipodia formation / inhibition of 1% FBS-induced lamellipodia formation / inhibition of 10% FBS-induced lamellipodia formation: HT29"}, "PC-3 cells [6]": {"test_system": "PC-3 cells", "assay": "cell growth (cell viability) in PC-3 cells", "type": "cell-based, human", "conditions": "for inhibition of cell growth (cell viability): PC-3"}, "HT29 cells [7]": {"test_system": "HT29 cells", "assay": "cell growth (cell viability) in HT29 cells", "type": "cell-based"}, "DU145 cells [8]": {"test_system": "DU145 cells", "assay": "calcium mobilization assay in androgen insensitive prostate cancer DU145 cells", "type": "cell-based, human"}, "DU145 cells [9]": {"test_system": "DU145 cells", "assay": "cell migration of DU145 cells", "type": "cell-based, human"}, "DU145 cells [10]": {"test_system": "DU145 cells", "assay": "cell growth (cell viability) in DU145 cells", "type": "cell-based, human"}},
  "note": "“Also recorded” adds a separate entry of the source.",
  "data": [
    {"smiles": "CCCCCCCCCCCCCCCCCC(=O)OC[C@@H](O)COP(=O)(O)OCC(O)CO", "note": "(mixture of isomers) [18:0 LPG, 1-stearoyl-2-hydroxy-sn-glycero-3-[phospho-rac-(1-glycerol)]]", "values": [
      {"measurement": "reduction of focal adhesion", "setting": "DU145 cells [1]", "result": "reduce focal adhesion"},
      {"measurement": "effect on spontaneously activated lamellipodia", "setting": "PC-3 cells [2]; PC-3, serum-free, FIGS. 38-40", "result": "inhibit spontaneously activated lamellipodia"},
      {"measurement": "inhibition of 18:1 LPA-induced lamellipodia formation", "setting": "PC-3 cells [2]; PC-3, FIGS. 42-44", "result": "inhibition of 18:1 LPA-induced LPA2 receptor mediated lamellipodia formation"},
      {"measurement": "reduction of focal adhesion", "setting": "PC-3 cells [3]", "result": "reduce focal adhesion"},
      {"measurement": "inhibition of (18:1) LPA-induced calcium mobilization", "setting": "HT29 cells [4]", "result": "inhibited LPA-induced calcium mobilization; also recorded: effective inhibitors/antagonists"},
      {"measurement": "inhibition of lamellipodia", "setting": "HT29 cells [5]; HT29, serum-free medium, 10 and 30 μM, FIGS. 24-25", "result": "inhibits lamellipodia in HT29 cells in a concentration dependent manner"},
      {"measurement": "inhibition of 14:0 LPA-induced lamellipodia formation", "setting": "HT29 cells [5]; 10 μM, FIG. 27", "result": "inhibition of 14:0 LPA-induced LPA2 receptor mediated lamellipodia formation"},
      {"measurement": "inhibition of 1% FBS-induced lamellipodia formation", "setting": "HT29 cells [5]; 10 μM, FIG. 30", "result": "inhibition of 1% FBS-induced LPA2 receptor mediated lamellipodia formation"},
      {"measurement": "inhibition of 10% FBS-induced lamellipodia formation", "setting": "HT29 cells [5]; 10 μM, FIG. 33", "result": "no inhibition"},
      {"measurement": "inhibition of 14:0 LPA-induced lamellipodia formation", "setting": "HT29 cells [5]; 30 μM, FIG. 28", "result": "inhibition of 14:0 LPA-induced LPA2 receptor mediated lamellipodia formation"},
      {"measurement": "inhibition of 1% FBS-induced lamellipodia formation", "setting": "HT29 cells [5]; 30 μM, FIG. 31", "result": "inhibition of 1% FBS-induced LPA2 receptor mediated lamellipodia formation"},
      {"measurement": "inhibition of 10% FBS-induced lamellipodia formation", "setting": "HT29 cells [5]; 30 μM, FIG. 34", "result": "no inhibition"},
      {"measurement": "inhibition of cell growth (cell viability)", "setting": "PC-3 cells [6]; in the presence of 10 μM of 18:1 LPA, FIGS. 45-47", "result": "inhibition of cell growth (cell viability) at high concentrations"},
      {"measurement": "inhibition of cell growth (cell viability)", "setting": "PC-3 cells [6]; without LPA, FIGS. 46-47", "result": "inhibition of cell growth (cell viability) at high concentrations"},
      {"measurement": "reduction of cell viability / cell growth", "setting": "PC-3 cells [6]; PC-3 cells", "result": "reduced cell viability"},
      {"measurement": "inhibition of cell growth (cell viability)", "setting": "HT29 cells [7]; FBS (1%), FIG. 36", "result": "inhibition of cell growth (cell viability) at high concentrations"},
      {"measurement": "inhibition of cell growth (cell viability)", "setting": "HT29 cells [7]; FBS (10%), FIG. 36", "result": "but not in the presence of high concentrations of FBS (10%)"},
      {"measurement": "inhibition of cell growth (cell viability)", "setting": "HT29 cells [7]; in the presence of 10 μM of 14:0 LPA, FIG. 35", "result": "inhibition of cell growth (cell viability) at high concentrations"},
      {"measurement": "inhibition of 14:0 LPA-induced calcium mobilization", "setting": "DU145 cells [8]", "result": "inhibited calcium mobilization"},
      {"measurement": "reduction of cell migration", "setting": "DU145 cells [9]", "result": "could reduce cell migration"},
      {"measurement": "reduction of cell viability / cell growth", "setting": "DU145 cells [10]", "result": "reduced cell viability"}
    ]}
  ]
}
